Molecules are shown by their SMILES. Where only a bound is given, the exact number is not on record here.

For assay [1], the system named is TNFα production in LPS-stimulated human monocytes. Nature of the assay: Cot Monocyte TNFα Cell Based Assay. Particulars: Homo sapiens, Monocyte, TNFα in LPS-stimulated human monocytes; read-out: EC50 TNF. The procedure, abridged:
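TR-FRET read-out of total secreted TNFα, normalized as % control (unstimulated = 0%, LPS-stimulated = 100%). Cells (5,000/well) were exposed to compound 1 h at 37 °C, then to 50 pg/ml LPS for a further 4 h.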

Assay [2] addresses T1, human Cot catalytic domain (30-397 amino acids) (Homo sapiens, UniProt P41279).
T1 construct: Purified recombinant human Cot catalytic domain (30-397 amino acids) was purchased from Cama Biosciences; purchased Cama Biosciences (so in the source)
In words: High Throughput Cot Biochemical Assay (KinEASE TR-FRET). The note with it: Cot biochemical HTRF (KinEASE TR-FRET) assay; read-out: IC50 HTRF. The procedure, abridged:
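TR-FRET readout: Eu-labeled phospho-specific antibody binds XL665-tagged STK3 peptide after phosphorylation by Cot (aa 30-397, 5 nM). Conditions: 400 μM ATP, 1 μM peptide, MOPS pH 7.0 buffer with MgOAc, DTT, BSA, NP-40, glycerol; 0.1% DMSO.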

T1 sequence (P41279 30-397): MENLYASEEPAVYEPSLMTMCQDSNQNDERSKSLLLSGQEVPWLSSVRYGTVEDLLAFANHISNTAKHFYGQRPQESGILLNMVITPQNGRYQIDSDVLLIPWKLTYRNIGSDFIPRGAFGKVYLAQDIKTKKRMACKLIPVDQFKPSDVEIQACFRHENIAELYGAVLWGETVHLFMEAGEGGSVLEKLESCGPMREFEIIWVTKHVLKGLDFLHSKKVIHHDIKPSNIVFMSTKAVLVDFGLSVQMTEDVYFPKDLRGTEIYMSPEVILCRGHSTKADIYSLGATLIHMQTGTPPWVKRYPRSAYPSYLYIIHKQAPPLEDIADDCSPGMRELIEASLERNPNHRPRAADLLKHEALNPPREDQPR

For orientation: EC50 means the midpoint of the concentration-response curve. For orientation: IC50 means the midpoint of a concentration-inhibition curve. For `CC(=O)N(C)c1cccc([C@H](Nc2cc(Cl)c3ncc(C#N)c(Nc4cnc(F)c(F)c4)c3c2)c2cn(CC(F)(F)F)nn2)c1` [Example 510, (S)-N-(3-(((8-chloro-3-cyano-4-((5,6-difluoropyridin-3-yl)amino)quinolin-6-yl)amino)(1-(2,2,2-trifluoroethyl)-1H-1,2,3-triazol-4-yl)methyl)phenyl)-N-methylacetamide], the concentration for a half-maximal effect (EC50) in assay [1] is 321 nM. The 50% inhibitory concentration (IC50) in assay [2] was 5 nM.

With `N#Cc1cnc2c(Cl)cc(N[C@@H](c3ccc(F)cc3)c3cn(C4COC4)nn3)cc2c1Nc1cnc(F)c(F)c1` [Example 511, (S)-8-chloro-4-((5,6-difluoropyridin-3-yl)amino)-6-(((4-fluorophenyl)(1-(oxetan-3-yl)-1H-1,2,3-triazol-4-yl)methyl)amino)quinoline-3-carbonitrile], the EC50 in assay [1] was found to be 701 nM. In assay [2], the IC50 stood at 17 nM.

As for `N#Cc1cnc2c(Cl)cc(N[C@@H](c3ccc(F)cc3)c3cn(CC(F)(F)F)nn3)cc2c1Nc1cnc(F)c(F)c1` [Example 512, (S)-8-chloro-4-((5,6-difluoropyridin-3-yl)amino)-6-(((4-fluorophenyl)(1-(2,2,2-trifluoroethyl)-1H-1,2,3-triazol-4-yl)methyl)amino)quinoline-3-carbonitrile], the concentration giving a half-maximal response (EC50) in assay [1] is 1100 nM. Moreover, the 50% inhibitory concentration (IC50) in assay [2] was found to be 85 nM.

Take `N#Cc1cnc2c(Cl)cc(N[C@@H](c3ccc(F)cc3)c3c[nH]nn3)cc2c1Nc1cnc(F)c(F)c1` [Example 513, (S)-8-chloro-4-((5,6-difluoropyridin-3-yl)amino)-6-(((4-fluorophenyl)(1H-1,2,3-triazol-4-yl)methyl)amino) quinoline-3-carbonitrile]: the EC50 in assay [1] was determined as 1340 nM. In assay [2], the IC50 is 22 nM.

Turning to `CCN1CC[C@@H](n2cc([C@@H](Nc3cc(Cl)c4ncc(C#N)c(Nc5ccc(F)c(Cl)c5)c4c3)c3ccccc3)nn2)[C@H](O)C1` [Example 514, 8-chloro-4-((3-chloro-4-fluorophenyl)amino)-6-(((S)-(1-((3R,4R)-1-ethyl-3-hydroxypiperidin-4-yl)-1H-1,2,3-triazol-4-yl)(phenyl)methyl)amino) quinoline-3-carbonitrile], the EC50 in assay [1] is 62 nM. Also, in assay [2], the IC50 is 2 nM.

As for `N#Cc1cnc2c(Cl)cc(N[C@@H](c3ccccc3)c3cn([C@@H]4CCNC[C@H]4O)nn3)cc2c1Nc1ccc(F)c(Cl)c1` [Example 515, 8-chloro-4-((3-chloro-4-fluorophenyl)amino)-6-(((S)-(1-((3R,4R)-3-hydroxypiperidin-4-yl)-1H-1,2,3-triazol-4-yl)(phenyl)methyl)amino) quinoline-3-carbonitrile], the concentration giving a half-maximal response (EC50) in assay [1] is 324 nM. Further, the IC50 in assay [2] was found to be 1 nM.

`CCN1CCC(n2cc([C@@H](Nc3cc(Cl)c4ncc(C#N)c(Nc5cccc(Cl)c5)c4c3)c3ccccc3)nn2)[C@H](O)C1` (stereo partly drawn) [Example 516]: in assay [1], the EC50 worked out at 92 nM. In addition, the half-inhibitory concentration (IC50) in assay [2] was 4 nM.

As to `N#Cc1cnc2c(Cl)cc(N[C@@H](c3ccccc3)c3cn([C@@H]4CCN(C5COC5)C[C@H]4O)nn3)cc2c1Nc1cccc(Cl)c1` [Example 517, 8-chloro-4-((3-chlorophenyl)amino)-6-(((S)-(1-((3R,4R)-3-hydroxy-1-(oxetan-3-yl)piperidin-4-yl)-1H-1,2,3-triazol-4-yl)(phenyl)methyl)amino) quinoline-3-carbonitrile], the EC50 in assay [1] amounted to 255 nM. The half-maximal inhibitory concentration (IC50) in assay [2] stood at 10 nM.

Turning to `N#Cc1cnc2c(Cl)cc(N[C@@H](c3cccc(CN4CC(F)(F)C4)c3)c3c[nH]nn3)cc2c1Nc1ccc(Cl)c(Cl)c1F` [Example 518, (S)-8-chloro-4-((3,4-dichloro-2-fluorophenyl)amino)-6-(((3-((3,3-difluoroazetidin-1-yl)methyl)phenyl)(1H-1,2,3-triazol-4-yl)methyl)amino) quinoline-3-carbonitrile], the EC50 in assay [1] worked out at 570 nM. In assay [2], the half-inhibitory concentration (IC50) is 52 nM.

Take `N#Cc1cnc2c(Cl)cc(NC(c3ccccc3)c3nn[nH]c3CN3CCOCC3)cc2c1Nc1ccc(F)c(Cl)c1` (stereo not drawn) [Example 519, 8-chloro-4-((3-chloro-4-fluorophenyl)amino)-6-(((5-(morpholinomethyl)-1H-1,2,3-triazol-4-yl)(phenyl)methyl)amino) quinoline-3-carbonitrile]: in assay [1], the concentration giving a half-maximal response (EC50) came out at 3150 nM. The IC50 in assay [2] amounted to 301 nM.

On to `CC(C)(C)N1CCC(n2cc([C@@H](Nc3cc(Cl)c4ncc(C#N)c(NS(=O)(=O)c5ccccc5)c4c3)c3ccccc3)nn2)CC1` [Example 520, (S)-N-(6-(((1-(1-(tert-butyl)piperidin-4-yl)-1H-1,2,3-triazol-4-yl)(phenyl)methyl)amino)-8-chloro-3-cyanoquinolin-4-yl)benzenesulfonamide], for which, in assay [1], the 50% effective concentration (EC50) is above 10000 nM. In addition, the half-maximal inhibitory concentration (IC50) in assay [2] is above 10000 nM.

For the compound `CC(C)(C)N1CCC(n2cc([C@@H](Nc3cc(Cl)c4ncc(C#N)c(Nc5cnc(Cl)c(F)c5)c4c3)c3ccccc3)nn2)CC1` [Example 521, (S)-6-(((1-(1-(tert-butyl)piperidin-4-yl)-1H-1,2,3-triazol-4-yl)(phenyl)methyl)amino)-8-chloro-4-((6-chloro-5-fluoropyridin-3-yl)amino)quinoline-3-carbonitrile], the EC50 in assay [1] was found to be 934 nM. Further, the half-inhibitory concentration (IC50) in assay [2] came to 41 nM.

Regarding `C[C@H](Nc1c(C#N)cnc2c(Cl)cc(N[C@@H](c3ccccc3)c3cn(C4CCN(C(C)(C)C)CC4)nn3)cc12)C1CCOCC1` [Example 522, 6-(((S)-(1-(1-(tert-butyl)piperidin-4-yl)-1H-1,2,3-triazol-4-yl)(phenyl)methyl)amino)-8-chloro-4-(((S)-1-(tetrahydro-2H-pyran-4-yl)ethyl)amino)quinoline-3-carbonitrile], in assay [1], the concentration for a half-maximal effect (EC50) was 9720 nM. Also, the 50% inhibitory concentration (IC50) in assay [2] amounted to 786 nM.

Regarding `C[C@@H](Nc1c(C#N)cnc2c(Cl)cc(N[C@@H](c3ccccc3)c3cn(C4CCN(C(C)(C)C)CC4)nn3)cc12)C1CCCCC1` [Example 523, 6-(((S)-(1-(1-(tert-butyl)piperidin-4-yl)-1H-1,2,3-triazol-4-yl)(phenyl)methyl)amino)-8-chloro-4-(((R)-1-cyclohexylethyl)amino) quinoline-3-carbonitrile], the EC50 in assay [1] stood at 4880 nM. Also, the 50% inhibitory concentration (IC50) in assay [2] turned out to be 300 nM.

As for `C[C@@H](Nc1c(C#N)cnc2c(Cl)cc(N[C@@H](c3ccccc3)c3cn(C4CCN(C(C)(C)C)CC4)nn3)cc12)C1CCOCC1` [Example 524, 6-(((S)-(1-(1-(tert-butyl)piperidin-4-yl)-1H-1,2,3-triazol-4-yl)(phenyl)methyl)amino)-8-chloro-4-(((R)-1-(tetrahydro-2H-pyran-4-yl)ethyl)amino) quinoline-3-carbonitrile], the EC50 in assay [1] was above 10000 nM. Also, the concentration for half-maximal inhibition (IC50) in assay [2] was 787 nM.

Regarding `CC(C)(C)N1CCC(n2cc([C@@H](Nc3cc(Cl)c4ncc(C#N)c(Nc5ccc(F)c(OC(F)(F)F)c5)c4c3)c3ccccc3)nn2)CC1` [Example 525, (S)-6-(((1-(1-(tert-butyl)piperidin-4-yl)-1H-1,2,3-triazol-4-yl)(phenyl)methyl)amino)-8-chloro-4-((4-fluoro-3-(trifluoromethoxy)phenyl)amino)quinoline-3-carbonitrile], in assay [1], the EC50 was 4260 nM. Also, the half-inhibitory concentration (IC50) in assay [2] amounted to 726 nM.

Regarding `CC(C)(C)N1CCC(n2cc([C@@H](Nc3cc(Cl)c4ncc(C#N)c(Nc5cccc(Cl)c5Cl)c4c3)c3ccccc3)nn2)CC1` [Example 526, (S)-6-(((1-(1-(tert-butyl)piperidin-4-yl)-1H-1,2,3-triazol-4-yl)(phenyl)methyl)amino)-8-chloro-4-((2,3-dichlorophenyl)amino) quinoline-3-carbonitrile], the concentration giving a half-maximal response (EC50) in assay [1] was 503 nM. Besides, the IC50 in assay [2] came out at 24 nM.

As for `CC(C)(C)N1CCC(n2cc([C@@H](Nc3cc(Cl)c4ncc(C#N)c(Nc5cc(Cl)ccc5Cl)c4c3)c3ccccc3)nn2)CC1` [Example 527, (S)-6-(((1-(1-(tert-butyl)piperidin-4-yl)-1H-1,2,3-triazol-4-yl)(phenyl)methyl)amino)-8-chloro-4-((2,5-dichlorophenyl)amino) quinoline-3-carbonitrile], the EC50 in assay [1] came out at 1360 nM. Moreover, the IC50 in assay [2] worked out at 52 nM.

For `N#Cc1cnc2c(Cl)cc(N[C@@H](c3cccc(N4CCCS4(=O)=O)c3)c3c[nH]nn3)cc2c1Nc1ccc(Cl)c(Cl)c1F` [Example 528, (S)-8-chloro-4-((3,4-dichloro-2-fluorophenyl)amino)-6-(((3-(1,1-dioxidoisothiazolidin-2-yl)phenyl)(1H-1,2,3-triazol-4-yl)methyl)amino)quinoline-3-carbonitrile], the EC50 in assay [1] was 830 nM. For the same compound, the half-inhibitory concentration (IC50) in assay [2] stood at 54 nM.

As for `N#Cc1cnc2c(Cl)cc(N[C@@H](c3ccccc3)c3cn(C4[C@H]5CNC[C@@H]45)nn3)cc2c1Nc1ccc(F)c(Cl)c1` (stereo partly drawn) [Example 529, 6-(((S)-(1-((1R,5S,6s)-3-azabicyclo[3.1.0]hexan-6-yl)-1H-1,2,3-triazol-4-yl)(phenyl)methyl)amino)-8-chloro-4-((3-chloro-4-fluorophenyl)amino) quinoline-3-carbonitrile], the 50% effective concentration (EC50) in assay [1] stood at 71 nM. The half-maximal inhibitory concentration (IC50) in assay [2] came to 2 nM.

Regarding `CC[N+](C)(CC)CCn1cc([C@@H](Nc2cc(Cl)c3ncc(C#N)c(Nc4ccc(Cl)c(Cl)c4F)c3c2)c2ccccc2)nn1` [Example 530, (S)-2-(4-(((8-chloro-3-cyano-4-((3,4-dichloro-2-fluorophenyl)amino)quinolin-6-yl)amino)(phenyl)methyl)-1H-1,2,3-triazol-1-yl)-N,N-diethyl-N-methylethan-1-aminium], the 50% effective concentration (EC50) in assay [1] is above 10000 nM. Also, the IC50 in assay [2] turned out to be 198 nM.

The values above are taken from patent publication US10316017B2, “COT modulators and methods of use thereof” (Gilead Sciences, Inc., priority 2015, dated 2019).
